From a melting point compilation (Tetko et al.; mined from patent text by program, amines drawn as free bases though some values may be those of a salt)

Compound | melting point [°C]
COc1cc(C=CC(=O)Nc2c(OC)nc3c(C)cc(C)cc3c2-c2ccccc2Cl)cc(OC)c1OC(C)=O | 230 to 231
CC(C)(C)OC(=O)N1CCCC[C@@H]1[C@H](CO)c1ccc(Br)cc1 | 117 to 118
CC(C)CC1(CCCCCl)C(=O)Nc2c(Cl)cc(Cl)cc21 (centres undefined) | 93 to 94
CCCCCCCCC=CCCCCCCCCCCCC(=O)Nc1ccc(Cl)cc1C(=O)O | 159 to 162
C=C(C)C(=O)NCCC(=O)Nc1cc(Cl)c(C)c(Cl)c1O | 150 to 152
CCCC1=C(C)C(=O)c2c(oc(Cc3ccc(OC)cc3)c2C)C1=O | 60 to 61
CCOC(=O)c1c(O)c2cc(Cl)ccc2c(=O)n1C | 110 to 111
COC(N)C(=O)NC(=O)OCc1ccccc1 (centres undefined) | 110 to 112
COc1ccc(C(=O)Nc2c(C)c(C)c3c(c2C)C(c2ccc(F)cc2)C(C)(C)O3)cc1 (centres undefined) | 191 to 194
C[C@@H](n1cnc2cc(N(C)C)c(F)cc2c1=O)[C@](O)(Cn1cncn1)c1ccc(F)cc1F | 197 to 198
O=C1C2CCCC(C(=O)N2Cc2ccccc2)N1Cc1ccccc1 | 201 to 202
CC(=O)N(CCN1CCC(Nc2nc3ccccc3n2Cc2ccc(F)cc2)CC1)c1nccs1 | 186 to 193
N#Cc1cnc2ccc(/C=C/CCN3CCOCC3)cc2c1Nc1ccc(Cl)cc1Cl | 115 to 116
CN(C)C1=Nc2cc(Br)ccc2N2CCc3cccc1c32 | 124 to 127
N#Cc1ncn2c1[C@@H]1CCN1C(=O)c1c-2cccc1C(F)(F)F | 115 to 119
CN(C)c1cccc2c1C(=O)NS2(=O)=O | 228 to 229
COCOc1cc(-n2c(OC)nc(C(F)(F)F)cc2=O)c(F)cc1Cl | 97 to 98
COc1nc(C)c(N2CCCn3c2nc2c(Br)ccc(C(OC(F)F)C(F)(F)F)c23)c(C)n1 (centres undefined) | 211 to 213
CN1C(=O)[C@H](NC(=O)CCc2ccc(C(F)(F)F)cc2)N=C(c2ccccc2)c2ccccc21 | 175 to 176
O=C(CC1CCCCC1)N(O)Cc1ccccc1 | 83 to 85
COC(=S)c1sc(C)c(Cl)c1OC | 82 to 83
COc1ccccc1NC(=O)Nc1nc(N2CCCCC2)nc(N(CCC(=O)O)Cc2cccc(C)c2)n1 | 91 to 92
COc1cn(-c2cccc(C(F)(F)F)c2)nc(C(C)=O)c1=O | 155 to 156
CC(=O)OCCCC#Cc1ccccc1S(N)(=O)=O | 136 to 138
COC(=O)c1cccc2c1NCC2 | 70 to 73

Compound | melting point [°C]
CC1Cc2nc(N)nc(Cl)c2C1 (centres undefined) | 182 to 183
Cc1ccc(C(C)(C)CCCCC(=O)O)cc1C | 71 to 73
C=C(C)[C@H]1CC[C@@](C)(O)[C@H](N[C@@H](C)C2CCCCC2)C1 | 63 to 64
O=[N+]([O-])c1cccc(-c2ccnc3ccnn23)c1 | 204 to 206
Cn1c(SCCCN2CCc3ccc(NS(C)(=O)=O)cc3C2)nnc1-c1ccccc1 | 90
Cc1cc(OC(F)F)nc(NC(=O)Oc2ccccc2)n1 | 56 to 58
[N-]=[N+]=NCCOc1cc(Cl)cc([N+](=O)[O-])c1N | 113 to 114
O=C(O)Cc1ccc(OCCCN2CCC(c3cn(CC4CC4)c4ccccc34)CC2)cc1 | 83 to 85
COc1cccc2c1CC1OC1C2 (centres undefined) | 49.5 to 50.5
CCc1cccc(C)c1CNc1cc(OC)nc2c1nc(C)n2C | 165 to 166
Brc1ccc(Cn2cnc3ccccc32)cc1 | 93 to 95
NS(=O)(=O)c1ccc(-c2[nH]c3ccccc3c2-c2ccc(O)cc2)cc1 | 241 to 243
CCCCCCCCCCCCCCCCCCOCCOCCO | 45 to 46
CCOCCOc1ccc(CCNC(=O)c2cnc3ccccc3c2)cc1S(=O)(=O)NC(=S)NC | 88 to 91
Cc1nc(N2C(=O)N(Cc3ccc(F)cc3)CC2O)sc1C(=O)NCc1cccnc1 (centres undefined) | 64 to 66
COc1ccc2c(c1)C(c1ccncc1)Nc1cc(Cl)ccc1O2 (centres undefined) | 186 to 188
CCCc1c(OCCCCSc2nnc(SCC(=O)O)s2)ccc(C(C)=O)c1O | 123 to 124
Cn1ccnc1Sc1ccc2[nH]nc(Nc3nccs3)c2c1 | > 250
COc1ccc2c(c1)c(-c1cc3c(OC)ccnc3[nH]1)cn2C | 288 to 289
CCCCCCCCCCCCCCCCCCOc1ccc(N(CC(=O)O)C(=O)OC(C)(C)C)cc1 | 89 to 92.5
Cc1ccccc1C(=O)c1ccccc1C | 66 to 67
Fc1ccccc1-c1cccc2[nH]c3c(c12)CCN(Cc1ccccc1)CC3 | 157 to 159
COc1cccc2c(=O)[nH]c(C)nc12 | 261 to 262
CNCC1(CF)CCN(c2c(F)cc3c(=O)c(C(=O)O)cn(C4CC4)c3c2OC)C1 (centres undefined) | 208 to 210
COc1cc(CCCCCCC=O)ccc1OCc1nc(-c2ccccc2)oc1C | 64 to 65

Compound | melting point [°C]
COC(=O)c1ccc(OC(F)(F)F)c(O)c1 | 95 to 97
O=C(O)c1cccc(OCc2ccc(Cl)c(Cl)c2)c1 | 173 to 174
CCN(CC)c1ccc2nc(C)c(C#N)c(O)c2c1 | > 250
CC[C@H](C)C(=O)c1ccc(-c2ccc(OC)cc2)cc1 | 119 to 120
COCCOc1c(C)c(N2CCN(c3ccc(C)cc3)CC2)c(C)c2c1OC(C)(C)C2 | 118 to 120
CN1C(C)(C)CC(OC(=O)CCc2cc(-n3nc4ccc(Cl)cc4n3)c(O)c(C(C)(C)C)c2)CC1(C)C | 150 to 158
O=C(NO)c1ccc(CNC(=O)c2[nH]c(-c3ccccc3)cc2-c2ccc(F)cc2)cc1 | 215 to 216
COc1ccc2c(c1)CCC(C=O)=C2C | 70 to 72
OC(CCCCCOCc1ccccc1)c1cccc(OCc2ccc3ccccc3n2)c1 (centres undefined) | 86 to 89
CNS(=O)(=O)c1cccc(-c2cc(-c3nc(-c4ccc(C(F)(F)F)cc4)cc(C(F)(F)F)n3)ccn2)c1 | 174
CC(C)(COc1ccccc1C1NC(C(=O)O)CS1)CO[N+](=O)[O-] (centres undefined) | 105 to 108
CC(C)(C)C1=NN(c2ccc(C(=O)O)cc2)C(c2ccccc2F)C1 (centres undefined) | 225
COC(=O)C1=C(N)NC(C)=C([N+](=O)[O-])C1c1ccccc1S(=O)(=O)CCCCCl (centres undefined) | 218
CS(=O)(=O)Nc1ccc(OCCN2CCN(C(=O)c3ccc(NS(C)(=O)=O)cc3)CC2)cc1 | 170 to 175
O=C1Cc2cc(-n3cccc3)ccc2C(=O)N1 | 212 to 213
COc1ccc(N2C(=O)C(=O)c3cc(OC)ccc32)cc1 | 203 to 205
O=C(Nc1ccc(Oc2c(Cl)cc(C(F)(F)F)c(Cl)c2Cl)cc1Cl)Nc1nonc1-c1ccccc1 | 209
Cc1ccc2c(c1)C(=O)c1ccccc1CO2 | 100 to 103
COc1ccc2c3c(c(=O)oc2c1)CN(Cc1ccccn1)CC3 | 140 to 142
COc1ccc2[nH]cc(Cc3cccnc3)c2c1 | 112
CCN(CCO)Cc1cc(Nc2nc(Nc3cc4c(cc3OC)CCN(CC(=O)N(C)C)CC4)ncc2Cl)ccc1F | 71 to 75
CCN(CC)CCOc1cc(C(=O)NC(=N)N)c(C)c2ccc(OC)cc12 | 135
Clc1nc2ccccc2c2occc12 | 120 to 122
CCOC(CNN)OCC | 126 to 127
OCC1OC(SCCCc2ccccc2)C(O)C(O)C1O (centres undefined) | 122 to 123

Compound | melting point [°C]
COc1ccc(N2CCN(c3c(C)c(C)c4c(c3C)C(O)(c3ccc(OC(F)(F)F)cc3)C(C)(C)O4)CC2)cc1 (centres undefined) | 175 to 176
CCOC(=O)c1c(CN(CC)CC)nc2sc3c(c2c1-c1ccc(OC)c(OC)c1)CCN(C(=O)OCC)C3 | 119 to 120
CCCn1c(=O)n(C2OC(CO)C(O)C2O)c2nc(N)[nH]c(=O)c21 (centres undefined) | 151 to 153
Cn1c(C#N)c(Br)n(-c2ccc(Cl)cc2)c1=O | 185
CC(C)(C)OC(=O)NC(CC(=O)OCc1ccccc1)C(=O)C(C#N)=P(c1ccccc1)(c1ccccc1)c1ccccc1 (centres undefined) | 42 to 44
Cc1cc2oc(=O)c3c(c2cc1[N+](=O)[O-])CCNC3 | 197 to 199
CC(=O)OCC(=O)Nc1nc(CN2CCC(c3c[nH]c4ccccc34)CC2)cs1 | 140 to 144
COc1ccc(SCCCCCCCC(=O)O)cc1 | 66 to 68
CO[C@]1(c2cc(F)cc(Oc3ccc(/C(C)=N/O)cc3)c2)CCO[C@@H]1C (racemic) | 126 to 127
COC(=O)CCCOc1ccc(CC(C)NCC(O)c2cc3ccccc3o2)cc1 (centres undefined) | 63 to 70
CN(CC1CCCCN1)C(=O)c1cc(OCC(F)(F)F)ccc1OCC(F)(F)F (centres undefined) | 104 to 107
CC(C)(C)OC(=O)N[C@@H](CC(=O)OCc1ccccc1)C(=O)N[C@@H](Cc1ccccc1)C(=O)OCc1ccccc1 | 93 to 94
O=C(N[C@H]1CC[C@H](CCN2CCN(c3nccc4c3OCC4)CC2)CC1)c1ccc(Cl)cc1 | 252
O=[N+]([O-])c1c(F)cc(N2CCOCC2)cc1F | 112 to 114
NS(=O)(=O)c1ccc(-n2nc(C(F)(F)F)cc2-c2ccc(Cl)cc2)cc1F | 140 to 141
CCNc1nc(-c2ccccc2)c(-c2ccc(=O)n(C(C)C)n2)s1 | 167 to 169
CC(CC(C)C)=Nc1cc2c(cc1F)OCC(=O)N2 | 113 to 115
Cc1ccc(NN)c2c1CC(C)O2 (centres undefined) | 90 to 92
CCCCN(C1CS(=O)(=O)c2ccccc21)S(C)(=O)=O (centres undefined) | 171 to 173
Cc1ccc(NC(=O)c2ccc(C(=O)Nc3ccccc3NC(=O)OC(C)(C)C)nc2)cc1Nc1nc(-c2cccnc2)cs1 | 222 to 224
CC(C)(C)C(=O)Oc1ccc(C(=O)c2ccc(OC(=O)C(C)(C)C)cc2OC(=O)C(C)(C)C)c(OC(=O)C(C)(C)C)c1 | 154 to 156
COCCc1ncc(CO)c(NCc2ccc(-c3ccccc3-c3nnnn3C(c3ccccc3)(c3ccccc3)c3ccccc3)cc2)n1 | 118 to 120
N#Cc1c(N2CCCCC2)cc(-c2ccc3ccc4cccc5ccc2c3c45)c2c1-c1ccccc1C2 | 114 to 116
COc1cc2ncnc(N3CCC(CI)CC3)c2cc1OC | 180 to 182
